This passage reports IC50 results from ChEMBL document CHEMBL4041499, “Synthesis and evaluation of 7-substituted coumarin derivatives as multimodal monoamine oxidase-B and cholinesterase inhibitors for the treatment of Alzheimer's disease” (Eur J Med Chem, 2017).

Structures are written as SMILES.

One assay has as its target Acetylcholinesterase (Electrophorus electricus, UniProt O42275).
The target of another assay is Cholinesterase (Equus caballus, UniProt P81908).
The target of assay [1] is T1, Amine oxidase [flavin-containing] A (Homo sapiens, UniProt P21397).
T1 sequence (P21397 whole entry): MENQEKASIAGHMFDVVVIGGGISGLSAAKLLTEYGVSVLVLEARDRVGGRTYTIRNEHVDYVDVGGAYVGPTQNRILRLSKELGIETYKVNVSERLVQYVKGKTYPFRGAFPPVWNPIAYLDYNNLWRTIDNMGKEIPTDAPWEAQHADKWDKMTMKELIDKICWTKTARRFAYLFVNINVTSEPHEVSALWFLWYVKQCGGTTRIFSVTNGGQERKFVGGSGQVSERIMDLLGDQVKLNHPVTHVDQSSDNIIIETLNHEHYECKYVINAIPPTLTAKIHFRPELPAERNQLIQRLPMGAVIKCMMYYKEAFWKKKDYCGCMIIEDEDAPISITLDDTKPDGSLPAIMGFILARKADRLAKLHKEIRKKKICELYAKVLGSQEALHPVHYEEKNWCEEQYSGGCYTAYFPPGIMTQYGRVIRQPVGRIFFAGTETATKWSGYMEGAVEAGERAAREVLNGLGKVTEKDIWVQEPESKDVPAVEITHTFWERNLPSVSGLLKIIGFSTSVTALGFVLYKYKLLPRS
It counts as ADME.
Description: Inhibition of recombinant human MAO-A assessed as reduction in 4-hydroxyquinolone production using kynuramine as substrate after 20 mins by fluorescence assay

Chain of Cholinesterase (P81908 whole entry): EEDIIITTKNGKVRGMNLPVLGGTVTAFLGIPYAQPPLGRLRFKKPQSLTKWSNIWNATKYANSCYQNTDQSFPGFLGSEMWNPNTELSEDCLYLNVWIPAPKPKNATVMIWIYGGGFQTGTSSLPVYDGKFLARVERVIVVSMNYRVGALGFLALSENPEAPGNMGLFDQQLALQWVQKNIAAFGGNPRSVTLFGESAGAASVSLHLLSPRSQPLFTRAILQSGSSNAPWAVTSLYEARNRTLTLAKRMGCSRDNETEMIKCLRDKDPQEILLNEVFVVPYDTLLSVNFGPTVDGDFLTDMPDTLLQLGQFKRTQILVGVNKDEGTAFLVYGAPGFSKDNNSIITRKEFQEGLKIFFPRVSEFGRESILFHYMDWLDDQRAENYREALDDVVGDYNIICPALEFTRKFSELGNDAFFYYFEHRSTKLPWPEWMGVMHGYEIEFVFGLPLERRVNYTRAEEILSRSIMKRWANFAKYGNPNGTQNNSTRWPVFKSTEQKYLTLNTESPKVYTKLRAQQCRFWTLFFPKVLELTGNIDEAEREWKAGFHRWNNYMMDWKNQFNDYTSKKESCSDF
Chain of Acetylcholinesterase (O42275 whole entry): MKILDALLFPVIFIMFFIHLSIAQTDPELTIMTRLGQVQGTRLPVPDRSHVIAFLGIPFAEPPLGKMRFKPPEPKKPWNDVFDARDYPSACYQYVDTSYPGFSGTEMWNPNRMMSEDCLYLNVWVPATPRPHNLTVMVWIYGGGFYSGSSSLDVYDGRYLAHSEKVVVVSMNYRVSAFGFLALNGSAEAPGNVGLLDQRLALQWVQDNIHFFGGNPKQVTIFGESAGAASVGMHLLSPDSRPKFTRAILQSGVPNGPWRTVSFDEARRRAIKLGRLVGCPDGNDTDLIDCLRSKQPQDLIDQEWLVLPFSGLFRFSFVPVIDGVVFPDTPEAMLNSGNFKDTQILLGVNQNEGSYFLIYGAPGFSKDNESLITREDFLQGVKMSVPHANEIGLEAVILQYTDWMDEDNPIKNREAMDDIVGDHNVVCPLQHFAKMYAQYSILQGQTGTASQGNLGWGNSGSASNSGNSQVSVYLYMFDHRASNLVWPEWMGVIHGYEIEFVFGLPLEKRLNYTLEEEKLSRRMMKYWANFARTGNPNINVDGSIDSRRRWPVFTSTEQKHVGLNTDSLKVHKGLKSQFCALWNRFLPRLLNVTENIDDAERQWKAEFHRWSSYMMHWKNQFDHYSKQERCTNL

The IC50 is the midpoint of a concentration-inhibition curve. With `Cc1c(C#N)c(=O)oc2cc(OCc3ccc(Cl)cc3)ccc12`, the IC50 at Acetylcholinesterase and at Cholinesterase was > 100 µM throughout.

`O=c1cc(C(F)(F)F)c2ccc(OCCN3CCN(Cc4ccc(Br)cc4)CC3)cc2o1`: the figures for the IC50 (at Acetylcholinesterase; at Cholinesterase; in assay [1]) were > 100 µM, > 100 µM and > 10 µM, respectively.

For the compound `O=c1ccc2ccc(OCCN3CCCCC3)cc2o1`, on Acetylcholinesterase, the IC50 stood at 54.9 µM.

`O=c1ccc2ccc(OCCN3CCN(Cc4ccc(Br)cc4)CC3)cc2o1`: the figures for the IC50 (on Acetylcholinesterase; on Cholinesterase; in assay [1]) were > 100 µM, 50.1 µM and > 10 µM, respectively.

For the compound `Cc1c(Cl)c(=O)oc2cc(OCCN3CCC(Cc4ccccc4)CC3)ccc12`, the IC50 against Acetylcholinesterase was 31.3 µM; on Cholinesterase, 1.27 µM; in assay [1], > 10 µM.

For the compound `O=c1ccc2ccc(OCc3ccc(Br)cc3)cc2o1`, the IC50 at Acetylcholinesterase and on Cholinesterase was > 100 µM throughout.

On to `Cc1c(C#N)c(=O)oc2cc(OCc3ccc(Br)cc3Br)ccc12`, for which the IC50 against Acetylcholinesterase is > 100 µM; against Cholinesterase, > 100 µM; in assay [1] it was 0.72 µM.

In the case of `O=c1ccc2ccc(OCCN3CCC(Cc4ccccc4)CC3)cc2o1`, the IC50 was 36.7 µM on Acetylcholinesterase, 20.3 µM on Cholinesterase and > 10 µM in assay [1].

In the case of `Cc1c(Cl)c(=O)oc2cc(OCc3ccc(Br)cc3)ccc12`, the concentration for half-maximal inhibition (IC50) against Acetylcholinesterase and against Cholinesterase was > 100 µM throughout.

As for `Cc1c(C#N)c(=O)oc2cc(OCc3ccc(F)cc3)ccc12`, the IC50 against Acetylcholinesterase and at Cholinesterase was > 100 µM each time.

Turning to `Cc1cc(=O)oc2cc(OCCN3CCN(Cc4ccc(Br)cc4)CC3)ccc12`, the IC50 against Acetylcholinesterase is 12.8 µM; on Cholinesterase it was 9.7 µM; in assay [1], > 10 µM.

On to `O=c1cc(C(F)(F)F)c2ccc(OCc3ccc(Br)cc3)cc2o1`, for which the half-inhibitory concentration (IC50) was > 100 µM against Acetylcholinesterase, > 100 µM against Cholinesterase and > 10 µM in assay [1].

As to `Cc1c(C#N)c(=O)oc2cc(OCCN3CCC(Cc4ccccc4)CC3)ccc12`, the IC50 against Acetylcholinesterase is 9.1 µM; against Cholinesterase it was 5.9 µM; in assay [1] it was > 10 µM.

Consider `Cc1c(C#N)c(=O)oc2cc(OCCN3CCN(Cc4ccc(Br)cc4)CC3)ccc12`, for which the IC50 was 38.5 µM against Acetylcholinesterase, 13.3 µM on Cholinesterase and > 10 µM in assay [1].

In the case of `Cc1c(C#N)c(=O)oc2cc(OCc3ccccc3Br)ccc12`, the IC50 against Acetylcholinesterase is > 100 µM; against Cholinesterase, > 100 µM; in assay [1], > 10 µM.

For the compound `Cc1cc(=O)oc2cc(OCCN3CCCCC3)ccc12`, 66.4 µM corresponded to half-maximal inhibition against Acetylcholinesterase (IC50).

As for `O=c1cc(C(F)(F)F)c2ccc(OCCN3CCC(Cc4ccccc4)CC3)cc2o1`, the IC50 against Acetylcholinesterase is > 100 µM; at Cholinesterase it was > 100 µM; in assay [1], > 10 µM.

Regarding `Cc1c(Cl)c(=O)oc2cc(OCc3ccccc3)ccc12`, the IC50 against Acetylcholinesterase is > 100 µM; at Cholinesterase, 0.96 µM; in assay [1], 2.13 µM.

For the compound `Cc1c(C#N)c(=O)oc2cc(OCc3ccccc3)ccc12`, the half-maximal inhibitory concentration (IC50) at Acetylcholinesterase is > 100 µM; at Cholinesterase it was 21.8 µM; in assay [1] it was 1.38 µM.

For the compound `Cc1cc(=O)oc2cc(OCCN3CCC(Cc4ccccc4)CC3)ccc12`, the IC50 is 29.4 µM at Acetylcholinesterase, 5.19 µM on Cholinesterase and > 10 µM in assay [1].

As for `Cc1cc(=O)oc2cc(OCc3ccc(Br)cc3)ccc12`, the 50% inhibitory concentration (IC50) is > 100 µM on Acetylcholinesterase, > 100 µM at Cholinesterase and 0.05 µM in assay [1].

With `Cc1c(Cl)c(=O)oc2cc(OCCN3CCN(Cc4ccc(Br)cc4)CC3)ccc12`, the results for the IC50 (against Acetylcholinesterase; on Cholinesterase; in assay [1]) were > 100 µM, 3.12 µM and > 10 µM, respectively.

For `Cc1c(C#N)c(=O)oc2cc(OCc3ccc(Br)cc3)ccc12`, the IC50 at Acetylcholinesterase and against Cholinesterase was > 100 µM in each case.
